Data taken from patent US9512128B2 (BAYER CROPSCIENCE AG, priority 2012, dated 2016).

Assays:
[1] = log P by HPLC on reversed-phase columns (C 18), EEC directive 79/831 Annex V.A8; type: physicochemical
Summary of the method: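 Measured by reversed-phase C18 HPLC (LC-MS) with a linear 10→95% acetonitrile gradient. Acidic: pH 2.7, 0.1% formic acid. Neutral: pH 7.8, 0.001 M ammonium bicarbonate.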

[2] = test system: green peach aphid (Myzus persicae); assay: Myzus persicae spray test (MYZUPE); type: in vivo; conditions: application rate 500 g/ha, after 6 days, Chinese cabbage leaf discs
Procedure: 1. Myzus persicae Spray Test (MYZUPE)
• Solvents: 78 parts by weight of acetone • 1.5 part by weight of dimethylformamide • Emulsifier: 0.5 part by weight of alkylaryl polyglycol ether
To produce a suitable preparation of active compound, 1 part by weight of active compound is mixed with the stated amounts of solvents and emulsifier, and the concentrate is diluted with emulsifier-containing water to the desired concentration.
Discs of Chinese cabbage leaves (Brassica pekinensis) infested by all stages of the green peach aphid (Myzus persicae) are sprayed with an active compound preparation of the desired concentration.
After 6 days, the efficacy in % is determined. 100% here means that all of the aphids have been killed; 0% means that no aphids have been killed.

[3] = test system: southern root-knot nematode (Meloidogyne incognita); assay: Meloidogyne incognita test (MELGIN); type: in vivo; conditions: application rate 20 ppm, after 14 days, lettuce
Summary of the method: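 Compound in acetone diluted with water, added to sand with M. incognita egg/larvae suspension and lettuce seeds. Root galls assessed after 14 days; effect in % where 100% means no galls and 0% equals untreated control.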

[4] = test system: greenhouse red spider mite (Tetranychus urticae); assay: Tetranychus urticae spray test, OP-resistant (TETRUR); type: in vivo; conditions: application rate 500 g/ha, after 6 days, bean leaf discs
Summary of the method: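 Bean leaf discs infested with all stages of an OP-resistant strain are sprayed with compound in acetone/DMF with alkylaryl polyglycol ether emulsifier, diluted in water; % mortality after 6 days (100% = all mites killed).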

[5] = test system: cattle ticks (Boophilus microplus); assay: Boophilus microplus injection test (BOOPMI Inj); type: in vivo; conditions: 20 μg/animal, injection into the abdomen, assessed after 7 days
Procedure: 6. Boophilus microplus Injection Test (BOOPMI Inj)
• Solvent: dimethyl sulphoxide
To produce a suitable preparation of active compound, 10 mg of active compound are mixed with 0.5 ml of solvent, and the concentrate is diluted with solvent to the desired concentration.
1 μl of the active compound solution is injected into the abdomen of 5 fed adult female cattle ticks (Boophilus microplus). The animals are transferred into dishes and kept in a climate-controlled room.
The activity is assessed after 7 days by laying of fertile eggs. Eggs whose fertility is not visible from the outside are stored in a climate-controlled cabinet until the larvae hatch after about 42 days. An efficacy of 100% means that none of the ticks has laid any fertile eggs; 0% means that all eggs are fertile.

SMILES: CCn1cnc2c(=O)n(-c3cc(SCC(F)(F)F)c(C)cc3F)cnc21 [Compound 53]
- logP[a] ([1]; method [a]): 2.46
- logP[b] ([1]; method [b]): 2.41
- efficacy in % (aphids killed) [2]: 90%
- nematicidal effect in % (formation of galls) [3]: 100%
- efficacy in % (spider mites killed) [4]: 90%

SMILES: CCn1ncc2c(=O)n(-c3cc(SCC(F)(F)F)c(C)cc3F)c(C)nc21 [Compound 125]
- efficacy in % (aphids killed) [2]: 100%
- efficacy in % (spider mites killed) [4]: 100%

SMILES: Cc1cc(F)c(-n2cnc3nn(C)c(C)c3c2=O)cc1[S+]([O-])CC(F)(F)F (stereo not drawn) [Compound 172]
- efficacy in % (laying of fertile eggs) [5]: 100%
- efficacy in % (aphids killed) [2]: 90%
- efficacy in % (spider mites killed) [4]: 90%

SMILES: Cc1cc(F)c(-n2c(C)nc3nn(C)cc3c2=O)cc1[S+]([O-])CC(F)(F)F (stereo not drawn) [Compound 175]
- efficacy in % (aphids killed) [2]: 100%
- efficacy in % (spider mites killed) [4]: 100%
